Patent US10336732B2, “1-heterocyclyl isochromanyl compounds and analogs for treating CNS disorders” (Sunovion Pharmaceuticals Inc., priority 2015, dated 2019)

Target: T1, 5-HT2C (Homo sapiens, UniProt P28335)
T1 construct: expressed in transfected cells; host or cells: HEK-293 cells
T1 sequence (P28335 33-458): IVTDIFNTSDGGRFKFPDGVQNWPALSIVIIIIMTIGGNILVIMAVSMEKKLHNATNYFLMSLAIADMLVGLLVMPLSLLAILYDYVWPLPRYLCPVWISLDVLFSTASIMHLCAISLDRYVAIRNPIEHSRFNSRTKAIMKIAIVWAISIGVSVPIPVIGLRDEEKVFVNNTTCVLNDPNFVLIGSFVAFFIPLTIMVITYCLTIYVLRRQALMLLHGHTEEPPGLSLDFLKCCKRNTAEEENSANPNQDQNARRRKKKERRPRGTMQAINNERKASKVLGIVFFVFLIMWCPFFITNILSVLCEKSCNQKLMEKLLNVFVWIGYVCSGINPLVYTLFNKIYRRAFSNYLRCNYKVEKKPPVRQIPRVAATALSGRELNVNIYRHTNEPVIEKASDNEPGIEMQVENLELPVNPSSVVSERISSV
Assay: In vitro radioligand binding assay, 5-HT2C, [3H]mesulergine
Set-up: concentration or dose not given beside the values
Settings: human recombinant (HEK-293 cells)
Description: Certain compounds were tested by in vitro binding assays using standard procedures. […] These receptors and assays are well known to those skilled in the art, as exemplified by the following: Abramovitz, M. et al. (2000), Biochem. Biophys. Acta., 1483: 285-293 (EP4, IP (PGI2)); Aharony, D. et al. (1993), Mol. Pharmacol., 44: 356-363 (NK2); Ardati, A. et al. (1997), Mol. Pharmacol., 51: 816-824 (NOP (ORL1)); Bignon, E. et al. (1999), J. Pharmacol. Exp. Ther. 289: 742-751 (CCK1 (CCKA)); Bloomquist, B. T. et al. (1998), Biochem. Biophys. Res. Commun., 243: 474-479 (GAL2); Brockhaus, M. et al. (1990), Proc. Natl. Acad. Sci. U.S.A., 87: 3127-3131 (TNF-α); Brown, G. B. (1986), J. Neurosci., 6: 2064-2070 (Na+ channel (site 2)); Buchan, K. W. et al. (1994), Brit. J. Pharmacol., 112: 1251-1257 (ETA); Cesura, A. M. et al. (1990), Mol. Pharmacol., 37: 358-366 (MAO-A); Choi, D. S. et al. (1994), FEBS Lett., 352: 393-399 (5-HT2B); Clark, A. F. et al. (1996), Invest. Ophtalmol. Vis. Sci., 37: 805-813 (GR); Couvineau, A. et al. (1985), Biochem. J., 231: 139-143 (VPAC1 (VIP1)); Dorje, F. et al. (1991), J. Pharmacol. Exp. Ther., 256: 727-733 (M1, M2, M3, M4); Ferry, G. et al. (2001), Eur. J. Pharmacol., 417: 77-89 (PPARγ); Fuchs, S. et al. (2001), Mol. Med., 7: 115-124 (ETB); Fuhlendorff, J. et al. (1990), Proc. Natl. Acad. Sci. U.S.A., 87: 182-186 (Y2); Ganapathy M E. et al. (1999), J. Pharmacol. Exp. Ther., 289: 251-260 (sigma (non-selective)); Gopalakrishnan, M. et al. (1996), J. Pharmacol. Exp. Ther., 276: 289-297 (N neuronal α4β2); Greengrass, P. and Bremner, R. (1979), Eur. J. Pharmacol., 55: 323-326 (α1 (non-selective)); Grandy, D. K. et al. (1989), Proc. Natl. Acad. Sci. U.S.A., 86: 9762-9766 (D25); Guard, S. et al. (1993), Eur. J. Pharmacol., 240:177-184 (BB (non-selective)); Heuillet, E. et al. (1993), J. Neurochem., 60: 868-876 (NK1, P2X); Hope, A. G. et al. (1996), Brit. J. Pharmacol., 118: 1237-1245 (5-HT3); Hoyer, D. et al. (1985), Eur. J. Pharmacol., 118: 1-12 (5-HT1B); Hugues, M. et al. (1982), J. Biol. Chem., 257: 2762-2769 (5-HT2A, SKCa channel); Joseph, S. S. et al. (2004), Naun.-Sch. Arch. Pharm., 369: 525-532 (β2); Le, M. T. et al. (2005), Eur. J. Pharmacol., 513: 35-45 (AT1); Le Fur, G. et al. (1983), Life Sci., 33: 449-457) (BZD (peripheral); Lee, Y. M. et al. (1993), J. Biol. Chem., 268: 8164-8169 (CCK2 (CCKB)); Leurs, R. et al. (1994), Brit. J. Pharmacol., 112: 847-854 (H2); Levin, M. C. et al. (2002), J. Biol. Chem., 277: 30429-30435 (11); Lewin, A. H. et al. (1989), Mol. Pharmacol., 35: 189-194 (Cl− channel (GABA-gated)); Lukas, R. J. (1986), J. Neurochem., 46: 1936-1941 (N muscle-type); Luthin, D. R. et al. (1995), Mol. Pharmacol., 47: 307-313; (A2A); Mackenzie, R. G. et al. (1994), Eur. J. Pharmacol., 266: 79-85 (D3); Mulheron, J. G. et al. (1994), J. Biol. Chem., 269: 12954-12962 (5-HT1A); Meng, F. et al. (1993), Proc. Natl. Acad. Sci. U.S.A., 90: 9954-9958 (κ (KOP)); Monsma, F. J. et al. (1993), Mol. Pharmacol., 43: 320-327 (5-HT6); Neote, K. et al. (1993), Cell, 72: 415-425 (CCR1); Pacholczyk, T. et al. (1991), Nature, 350: 350-354 (sst (non-selective, norepinephrine transporter)); Peralta, E. G. et al. (1987), Embo. J., 6: 3923-3929 (M3); Pristupa, Z. B. et al. (1994), Mol. Pharmacol., 45: 125-135 (dopamine transporter); Pruneau, D. et al. (1998), Brit. […]

## Clc1ccc2c(c1)[C@H]([C@@H]1CCCN1)OCC2 [Compound I-29, (S)-2-((R)-7-chloroisochroman-1-yl)pyrrolidine]
  5HT2c percent inhibition of specific binding: 67%

## Fc1ccc2c(c1)CCO[C@H]2[C@@H]1CCN1 [Compound I-90, (S)-2-((R)-6-fluoroisochroman-1-yl)azetidine]
  5HT2c percent inhibition of specific binding: 59%

## Fc1cccc2c1[C@H]([C@@H]1CCN1)OCC2 [Compound I-83, (S)-2-((R)-8-fluoroisochroman-1-yl)azetidine]
  5HT2c percent inhibition of specific binding: 64%

## Fc1cccc2c1[C@H]([C@@H]1CCCN1)OCC2 [Compound I-1, (S)-2-((R)-8-fluoroisochroman-1-yl)pyrrolidine]
  5HT2c percent inhibition of specific binding: 63%

## Fc1ccc2c(c1)CCO[C@H]2[C@@H]1CCCN1 [Compound I-9, (S)-2-((R)-6-fluoroisochroman-1-yl)pyrrolidine]
  5HT2c percent inhibition of specific binding: 61%
